Measured values taken from article doi:10.1101/2025.03.19.644003v1 (biorxiv, 2025).
pIC50, pKd: −log10 of the molar value.

What was measured:
[1] = molecular target: VHL:GEMIN3aa41-268 (VBC with purified GEMIN3aa41-268) (Homo sapiens, UniProt P40337+Q9UHI6); assay: SPR, immobilised GEMIN3aa41-268, pre-formed VBC:compound complex as analyte; type: binding
[2] = molecular target: VHL/EloB/EloC (VBC) (Homo sapiens, UniProt P40337); assay: SPR, immobilised His-tagged VBC; type: binding
[3] = molecular target: NanoLuc-VHL (Homo sapiens, UniProt P40337); assay: NanoBRET tracer displacement, live HEK293T cells; type: cell-based
Chain of NanoLuc-VHL (P40337 whole entry): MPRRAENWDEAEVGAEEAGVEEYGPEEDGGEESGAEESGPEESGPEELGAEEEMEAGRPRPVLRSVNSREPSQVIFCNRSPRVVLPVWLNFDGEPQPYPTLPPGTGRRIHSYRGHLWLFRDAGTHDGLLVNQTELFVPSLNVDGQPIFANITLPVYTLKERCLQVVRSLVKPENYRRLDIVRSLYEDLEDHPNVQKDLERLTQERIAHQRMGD

Chain of VHL:GEMIN3aa41-268 (VBC with purified GEMIN3aa41-268) (P40337 whole entry, the tested form may be a part): as the sequence (P40337 whole entry) above
Chain of VHL:GEMIN3aa41-268 (VBC with purified GEMIN3aa41-268) (Q9UHI6 41-268): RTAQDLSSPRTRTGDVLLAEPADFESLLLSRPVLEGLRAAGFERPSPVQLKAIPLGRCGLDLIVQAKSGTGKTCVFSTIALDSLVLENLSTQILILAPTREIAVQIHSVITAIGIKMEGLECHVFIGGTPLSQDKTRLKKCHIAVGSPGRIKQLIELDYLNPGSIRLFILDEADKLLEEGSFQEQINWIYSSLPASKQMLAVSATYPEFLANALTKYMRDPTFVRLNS
Chain of VHL:GEMIN3aa41-268 (VBC with purified GEMIN3aa41-268) (Q15369 whole entry, further chain, the tested form may be a part): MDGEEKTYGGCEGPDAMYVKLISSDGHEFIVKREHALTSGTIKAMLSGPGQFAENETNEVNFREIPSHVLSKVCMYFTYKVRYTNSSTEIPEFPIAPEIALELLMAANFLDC
Chain of VHL:GEMIN3aa41-268 (VBC with purified GEMIN3aa41-268) (Q15370 whole entry, further chain, the tested form may be a part): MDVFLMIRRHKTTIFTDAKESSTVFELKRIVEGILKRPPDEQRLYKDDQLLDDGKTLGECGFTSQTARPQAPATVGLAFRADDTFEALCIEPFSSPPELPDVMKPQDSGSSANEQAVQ
Chain of VHL/EloB/EloC (VBC) (Q15369 whole entry): as the sequence (Q15369 whole entry, further chain, the tested form may be a part) above
Chain of VHL/EloB/EloC (VBC) (Q15370 whole entry, further chain): as the sequence (Q15370 whole entry, further chain, the tested form may be a part) above
Chain of VHL/EloB/EloC (VBC) (P40337 whole entry): as the sequence (P40337 whole entry) above

| Compound | pKd [1] | pKd [2] | pIC50 [3] |
| --- | --- | --- | --- |
| CC(C)(C)[C@H](NC(=O)c1cnn2c1OCCC2)C(=O)N1C[C@H](O)C[C@H]1C(=O)NCc1ccc(-c2ccc(Cl)cc2Cl)cc1 [compound 1, N-((S)-1-((2S,4R)-2-(((2’,4’-dichloro-[1,1’-biphenyl]-4-yl)methyl)carbamoyl)-4-hydroxypyrrolidin-1-yl)-3,3-dimethyl-1-oxobutan-2-yl)-6,7-dihydro-5H-pyrazolo[5,1-b] [1,3] oxazine-3-carboxamide] | 7.16 | 6.66 | 6.06 |
| CC(C)(C)[C@H](NC(=O)c1cnn2c1CCCC2)C(=O)N1C[C@H](O)C[C@H]1C(=O)NCc1ccc(-c2ccc(Cl)cc2Cl)cc1 [compound 3, N-((S)-1-((2S,4R)-2-(((2’,4’-dichloro-[1,1’-biphenyl]-4-yl)methyl)carbamoyl)-4-hydroxypyrrolidin-1-yl)-3,3-dimethyl-1-oxobutan-2-yl)-4,5,6,7-tetrahydropyrazolo[1,5-a]pyridine-3-carboxamide] | 7.14 | 6.25 |  |
| CC(C)(C)[C@H](NC(=O)c1cnn2c1OCCC2)C(=O)N1C[C@H](O)C[C@H]1C(=O)NCc1ccc(-c2ccccc2Cl)cc1 [compound 5, N-((S)-1-((2S,4R)-2-(((2’-chloro-[1,1’-biphenyl]-4-yl)methyl)carbamoyl)-4-hydroxypyrrolidin-1-yl)-3,3-dimethyl-1-oxobutan-2-yl)-6,7-dihydro-5H-pyrazolo[5,1-b][1,3]oxazine-3-carboxamide] |  | 7.13 |  |

Now from value to compound:

| pKd [1] | pKd [2] | pIC50 [3] | Compound |
| --- | --- | --- | --- |
| 6.31 | 6.70 |  | CC(C)(C)[C@H](NC(=O)c1cnn2c1OCCC2)C(=O)N1C[C@H](O)C[C@H]1C(=O)NCc1ccc(-c2ccc(Cl)cc2)cc1 [compound 4, N-((S)-1-((2S,4R)-2-(((4’-chloro-[1,1’-biphenyl]-4-yl)methyl)carbamoyl)-4-hydroxypyrrolidin-1-yl)-3,3-dimethyl-1-oxobutan-2-yl)-6,7-dihydro-5H-pyrazolo[5,1-b][1,3]oxazine-3-carboxamide] |
|  | 6.77 |  | CC(C)(C)[C@H](NC(=O)c1cnn2c1OCCC2)C(=O)N1C[C@H](O)C[C@H]1C(=O)NCc1ccc(-c2ccccc2)cc1 [compound 6, N-((S)-1-((2S,4R)-2-(([1,1’-biphenyl]-4-ylmethyl)carbamoyl)-4-hydroxypyrrolidin-1-yl)-3,3-dimethyl-1-oxobutan-2-yl)-6,7-dihydro-5H-pyrazolo[5,1-b][1,3]oxazine-3-carboxamide] |
